For series [1], the system named is Trypanosoma brucei rhodesiense. Nature of the series: Antitrypanosomal activity against blood stream form of Trypanosoma brucei rhodesiense STIB900 trypomastigotes after 72 hrs by Alamar Blue assay. It is filed as functional, organism-based. As to conditions: STIB900, 72 h.
Series [2] has as its system Trypanosoma cruzi. Nature of the series: Potency index, ratio of benznidazole IC50 to compound IC50 for Trypanosoma cruzi Tulahuen C4. It is filed as functional.
For the next series, the system named is L6. Nature of the series: Cytotoxicity against rat L6 cells assessed as reduction in cell viability after 2 days by cell-titer-glo luminescent assay. It is filed as cell-based. The conditions noted are these: L6, 48 h.
Series [3] can be described thus: Selectivity index, ratio of IC50 for rat L6 cells to IC50 for blood stream form of Trypanosoma brucei rhodesiense STIB900. The conditions noted are these: read-out: Ratio IC50. It is filed as toxicity.
Series [4] is described as follows: Selectivity index, ratio of IC50 for rat L6 cells to IC50 for […] amastigotes infected in rat L6 cells. The format is toxicity, cell-based. The conditions noted are these: read-out: Ratio IC50.
Series [5] concerns Trypanosoma cruzi. The experiment in a line: Antitrypanosomal activity against Trypanosoma cruzi Tulahuen C4 amastigotes infected in rat L6 cells after 96 hrs by CPRG/nonidet-based inverted microscopic analysis. The format is functional, organism-based. As to conditions: Tulahuen C4, L6, 96 h.
Series [6] concerns Mycobacterium tuberculosis. Nature of the series: Antitubercular activity against Mycobacterium tuberculosis H37Rv ATCC 27294 after 5 days measured under aerobic conditions by fluorescence-based assay. The format is functional, organism-based. The conditions noted are these: H37Rv ATCC 27294, 120 h.
For series [7], the system named is Mycobacterium tuberculosis. The experiment in a line: Antitubercular activity against Mycobacterium tuberculosis H37Rv ATCC 27294 expressing luxABCDE operon incubated for 10 days under hypoxic conditions followed by incubation under aerobic conditions for 28 hrs by LORA method. It is filed as functional, organism-based.
Series [8] concerns Mycobacterium tuberculosis. The experiment in a line: Antitubercular activity against Mycobacterium tuberculosis H37Rv ATCC 27294 expressing luxABCDE operon at 100 uM incubated for 10 days under hypoxic conditions followed by incubation under aerobic conditions for 28 hrs by LORA method. The format is functional.
Series [9] relates to Mycobacterium tuberculosis. Nature of the series: Antitubercular activity against Mycobacterium tuberculosis RIF-R2 ATCC 35828 after 5 days by fluorescence-based assay. The format is functional. The conditions noted are these: RIF-R2 ATCC 35828, 120 h.
In series [10] the test system is Mycobacterium tuberculosis. The experiment in a line: Bactericidal activity against Mycobacterium tuberculosis H37Rv ATCC 27294 assessed as minimum concentration required to achieve a 2-log kill measured after 21 days. It is filed as functional.
A short description of series [11]: Cytotoxicity against African green monkey Vero cells assessed as reduction in cell viability after 2 days by cell-titer-glo luminescent assay. As to conditions: chlorocebus sabaeus, read-out: TC50. It is filed as cell-based.
For series [12], the system named is Mycobacterium tuberculosis. Nature of the series: Antitubercular activity against Mycobacterium tuberculosis INH-R2 ATCC 35822 after 5 days by fluorescence-based assay. It is filed as functional. As to conditions: INH-R2 ATCC 35822, 120 h.
Series [13] concerns Mycobacterium tuberculosis. Nature of the series: Antitubercular activity against Mycobacterium tuberculosis H37Rv ATCC 27294 expressing […] infected in mouse J774 cells assessed as log reduction in intracellular bacterial burden at 200 uM after 4 days by luminescence assay. The format is functional.
A short description of series [14]: Selectivity index, ratio of TC50 for African green monkey Vero cells to MIC for Mycobacterium tuberculosis H37Rv ATCC 27294 expressing luxABCDE operon. It is filed as toxicity. As to conditions: read-out: Selectivity Index.
The subject of series [15] is Mycobacterium tuberculosis. Nature of the series: Antitubercular activity against Mycobacterium tuberculosis H37Rv ATCC 27294 expressing […] infected in mouse J774 cells assessed as log reduction in intracellular bacterial burden at 20 uM after 4 days by luminescence assay. The format is functional.
For series [16], the system named is Mycobacterium tuberculosis. Nature of the series: Bactericidal activity against Mycobacterium tuberculosis H37Rv ATCC 27294 assessed as minimum concentration required to achieve a 2-log kill measured after 21 days under hypoxic conditions. The conditions noted are these: H37Rv ATCC 27294, 504 h. The format is functional.
Series [17] relates to Mycobacterium tuberculosis. The experiment in a line: Antitubercular activity against Mycobacterium tuberculosis H37Rv ATCC 27294 expressing […] infected in mouse J774 cells assessed as log reduction in intracellular bacterial burden at 0.6 uM after 4 days by luminescence assay. The format is functional.
In series [18] the test system is Mycobacterium tuberculosis. The experiment in a line: Antitubercular activity against Mycobacterium tuberculosis H37Rv ATCC 27294 expressing […] infected in mouse J774 cells assessed as log reduction in intracellular bacterial burden at 30 uM after 4 days by luminescence assay. It is filed as functional.

Structures are written as SMILES. Values after ≈ are worked out from the molar mass of the structure shown. Active and inactive are the calls of the source. The calls are words filed in the database; no cut-off is given here. Where only a bound is given, the exact number is not on record here.

`Cl.O=[N+]([O-])c1ncn(CCCNc2ccnc3cc(Cl)ccc23)n1`: the IC50 in series [1] was found to be 0.309 µM. The “Ratio IC50” value with Trypanosoma cruzi [2] is 2.2.
As for `O=[N+]([O-])c1nccn1CCCCNc1ncnc2ccccc12`, the IC50 in the series with L6 was 8.96 µM; with Trypanosoma cruzi [5], 2.32 µM; in [1], 2.58 µM; in series [6] it was above 200 µM. For the same molecule, the selectivity ratio came to 3.5 in series [3] and 3.9 in series [4]. Also, the concentration for an effect of 90% (IC90) in series [6] is above 200 µM. Also, the MIC in [6] is above 200 µM; in series [7], 9.18 µM (≈ 2.87 µg/mL). Further, the “Ratio IC50” value in the series on Trypanosoma cruzi [2] turned out to be 0.96.
In the case of `O=[N+]([O-])c1nccn1CCCNc1ccnc2c(Cl)cccc12`, the half-inhibitory concentration (IC50) with L6 was 107 µM; in the series on Trypanosoma cruzi [5], 1.11 µM; in series [1], 1.29 µM; in [6], above 200 µM. Besides, the selectivity ratio is 83 in [3] and 97 in [4]. This molecule also registered an IC90 in [6] above 200 µM. In addition, the MIC was above 200 µM in series [6] and 2.89 µM (≈ 0.959 µg/mL) in series [7]. Moreover, in the series with Trypanosoma cruzi [2], the “Ratio IC50” value is listed as 2.02.
For `O=[N+]([O-])c1ncn(CCCCNc2ncnc3ccccc23)n1`, the Activity in [8] came out at 76%. Further, the half-maximal inhibitory concentration (IC50) is 34.4 µM in the series on L6; 0.872 µM in the series on Trypanosoma cruzi [5]; 0.39 µM in series [1]; 51 µM in series [6]; 11 µM in series [7]. Besides, the selectivity ratio in [3] turned out to be 88; in [4], 39. Moreover, the minimum inhibitory concentration (MIC) was above 200 µM in series [9], 200 µM (≈ 62.7 µg/mL) in [6], above 200 µM in series [12] and above 100 µM in [7]. The concentration for an effect of 90% (IC90) in [6] is 140 µM; in [7], above 100 µM. Also, in series [10] (H37Rv ATCC 27294, 504 h), the minimum bactericidal concentration (MBC) is 100 µM (≈ 31.3 µg/mL). In addition, the “Ratio IC50” value in the series on Trypanosoma cruzi [2] is on record as 2.57. Further, the CC50 at 48 h in series [11] was above 100 µM. Further, the “log(activity)” value in series [13] is 0.7.
`Cl.O=[N+]([O-])c1ncn(CCCCNc2ccnc3cc(Cl)ccc23)n1`: the selectivity ratio stood at 710 in [3] and 979 in [4]. Besides, in series [1], inhibition was half-maximal at 0.193 µM (IC50). The “Ratio IC50” value with Trypanosoma cruzi [2] is 9.6.
For the molecule `O=[N+]([O-])c1nccn1CCCCNc1ccnc2c(Cl)cccc12`, the IC50 worked out at 36.2 µM in the series on L6; 2.04 µM in the series on Trypanosoma cruzi [5]; 1.27 µM in [1]; 41 µM in series [6]; 0.15 µM in series [7]. Moreover, the selectivity ratio in series [3] worked out at 29; in [14] it was 16; in series [4], 18. The minimum inhibitory concentration (MIC) in [9] was above 200 µM; in [6], above 200 µM; in series [12], above 200 µM; in [7], 4.14 µM (≈ 1.43 µg/mL). In addition, the results for the 90% effect concentration (IC90) in series [6] and in series [7] were above 200 µM and 0.84 µM, respectively. Also, in series [10], the MBC entry is “inactive”. Further, in the series on Trypanosoma cruzi [2], the “Ratio IC50” value amounted to 1.1. In series [11], the CC50 at 48 h was 66 µM. Further, the “log(activity)” value in [15] turned out to be 1.5.
Turning to `C[C@H]1COc2c(N3CCN(C)CC3)c(F)cc3c(=O)c(C(=O)O)cn1c23.C[C@H]1COc2c(N3CCN(C)CC3)c(F)cc3c(=O)c(C(=O)O)cn1c23.O` [LEVOFLOXACIN], the MIC in [9] was 1.4 µM; in [12] it was 1.3 µM.
In the case of `Cl.O=[N+]([O-])c1nccn1CCCNc1ccnc2cc(Cl)ccc12`, the selectivity ratio in series [3] came out at 18; in [4] it was 24. In series [1], this molecule registered a half-inhibitory concentration (IC50) of 1.4 µM. Moreover, the MBC in series [16] was 8.4 to 50 µM. Moreover, in series [6], the MIC is above 128 µM. In addition, the “Ratio IC50” value in the series with Trypanosoma cruzi [2] is listed as 2.15. Also, the CC50 at 48 h in series [11] is 399 µM.
For `NNC(=O)c1ccncc1` [ISONIAZID], the “log(activity)” value in series [17] worked out at 2.7; in series [18], 2.6. Besides, the MIC in [9] was 0.67 µM (≈ 0.0919 µg/mL); in series [12] it was above 200 µM.
Consider `O=C(Cn1ccnc1[N+](=O)[O-])NCc1ccccc1` [BENZNIDAZOLE], for which, in the series on Trypanosoma cruzi [5], the half-inhibitory concentration (IC50) amounted to 2.24 µM.
On to `O=[N+]([O-])c1nccn1CCCNc1ncnc2ccccc12`, for which the values for the IC50 (in the series on L6; in the series on Trypanosoma cruzi [5]; in [1]) were 38.6 µM, 1.83 µM and 13.2 µM, respectively. The selectivity ratio in series [3] stood at 2.9; in series [4], 21. Further, the “Ratio IC50” value in the series with Trypanosoma cruzi [2] is 1.11.
On to `O=[N+]([O-])c1cn2c(n1)OC[C@@H](OCc1ccc(OC(F)(F)F)cc1)C2` [PRETOMANID], for which, in [16], the minimum bactericidal concentration (MBC) lay within 17.8 to 35.7 µM (≈ 6.39 to 12.8 µg/mL).
Turning to `CO[C@H]1/C=C/O[C@@]2(C)Oc3c(C)c(O)c4c(O)c(c(/C=N/N5CCN(C)CC5)c(O)c4c3C2=O)NC(=O)/C(C)=C\C=C\[C@H](C)[C@H](O)[C@@H](C)[C@@H](O)[C@@H](C)[C@H](OC(C)=O)[C@@H]1C` [RIFAMPIN], the MIC in [9] is above 50 µM; in series [6], 0.015 µM (≈ 0.0123 µg/mL); in series [12] it was 0.011 µM (≈ 0.00905 µg/mL); in series [7] it was 0.022 µM (≈ 0.0181 µg/mL). In addition, the IC50 in [6] stood at 0.0046 µM; in series [7], 0.00072 µM. For the same molecule, the IC90 came out at 0.0049 µM in series [6] and 0.0037 µM in series [7].
With `Clc1cccc2c(NCCCCn3cncn3)ccnc12`, the concentration for half-maximal inhibition (IC50) in the series on L6 turned out to be 37.7 µM; with Trypanosoma cruzi [5], 48.6 µM; in series [1], 13.5 µM. The selectivity ratio in series [3] stood at 2.8; in series [4], 0.8. Besides, the “Ratio IC50” value with Trypanosoma cruzi [2] was found to be 0.05.
Regarding `O=[N+]([O-])c1ncn(CCCCNc2ccnc3c(Cl)cccc23)n1`, in series [8], the Activity is listed as 82%. Further, the IC50 is 73.6 µM in the series on L6, 0.574 µM in the series on Trypanosoma cruzi [5], 0.038 µM in series [1] and above 200 µM in series [6]. The selectivity ratio stood at 1940 in [3] and 128 in series [4]. Also, the concentration for an effect of 90% (IC90) in series [6] was above 200 µM. Besides, the MIC in series [6] is above 200 µM; in series [7], above 100 µM. In the series on Trypanosoma cruzi [2], the “Ratio IC50” value is listed as 3.9.
Turning to `Cl.O=[N+]([O-])c1nccn1CCCCNc1ccnc2cc(Cl)ccc12`, the values for the selectivity ratio in series [3] and in [4] were 36 and 19, respectively. In series [1], this molecule registered a half-inhibitory concentration (IC50) of 1.87 µM. Further, the MBC in [16] lay within 12.8 to 25.7 µM. Moreover, the MIC in series [6] was above 128 µM. Further, the “Ratio IC50” value with Trypanosoma cruzi [2] is recorded as 0.64. Moreover, the CC50 at 48 h in series [11] is above 1680 µM.
For the molecule `Cc1ncc([N+](=O)[O-])n1CCO` [METRONIDAZOLE], in series [6], the IC50 is above 200 µM, the IC90 was above 200 µM and the MIC is above 200 µM. In series [7], this molecule came in with an IC50 of 36 µM, an IC90 of 82 µM and an MIC of 200 µM (≈ 34.2 µg/mL).
